Source: patent US5750648A, “Retroviral protease inhibitors and combinations thereof” (G.D. Searle & Co., priority 1994, dated 1998)

Key:
[1] = system: HIV-1 in CEM cells; assay: CEM cell assay, HIV inhibition in acutely infected cells (MTT); format: cell-based; conditions: Human immunodeficiency virus 1, CCRF-CEM, 168 h; HIV-1 infected CEM cells, 7 days
Description: The effectiveness of selected compounds of the present invention were determined in the above-described enzyme assay and in a CEM cell assay. The HIV inhibition assay method of acutely infected cells is an automated tetrazolium based calorimetric assay essentially that reported by Pauwles et al, J. Virol. Methods 20, 309-321 (1988). Assays were performed in 96-well tissue culture plates. CEM cells, a CD4+ cell line, were grown in RPMI-1640 medium (Gibco) supplemented with a 10% fetal calf serum and were then treated with polybrene (2 μg/ml). An 80 μl volume of medium containing 1×10^4 cells was dispensed into each well of the tissue culture plate. To each well was added a 100 μl volume of test compound dissolved in tissue culture medium (or medium without test compound as a control) to achieve the desired final concentration and the cells were incubated at 37° C. for 1 hour. A frozen culture of HIV-1 was diluted in culture medium to a concentration of […] (TCID50=the dose of virus that infects 50% of cells in tissue culture), and a 20 μL volume of the virus sample (containing 1000 TCID50 of virus) was added to wells containing test compound and to wells containing only medium (infected control cells). Several wells received culture medium without virus (uninfected control cells). Likewise, the intrinsic toxicity of the test compound was determined by adding medium without virus to several wells containing test compound. In summary, the tissue culture plates contained the following experiments: In experiments 2 and 4 the final concentrations of test compounds were 1, 10, 100 and 500 μg/ml. Either azidothymidine (AZT) or dideoxyinosine (ddI) was included as a positive drug control. […] DMSO was added to all control wells at an appropriate concentration. Following the addition of virus, cells were incubated at 37° C. in a humidified, 5% CO2 atmosphere for 7 days. Test compounds could be added on days 0, 2 and 5 if desired. On day 7, post-infection, the cells in each well were resuspended and a 100 μl sample of each cell suspension was removed for assay. A 20 μL volume of a 5 mg/ml solution of 3-(4,5-dimethylthiazol-2-yl)-2,5-diphenyltetrazolium bromide (MTT) was added to each 100 μL cell suspension, and the cells were incubated for 4 hours at […] in a 5% CO2 environment. […] To each sample was added 100 μl of 10% sodium dodecylsulfate in 0.01N HCl to lyse the cells, and samples were incubated overnight. The absorbance at 590 nm was determined for each sample using a Molecular Devices microplate reader. Absorbance values for each set of wells is compared to assess viral control infection, uninfected control cell response as well as test compound by cytotoxicity and antiviral efficacy.

[2] = biological target: HIV protease (Human immunodeficiency virus type 1 group M subtype B, UniProt P04585); assay: HIV protease enzyme assay (fluorescent substrate 2-aminobenzoyl-Ile-Nle-Phe(p-NO2)-Gln-ArgNH2); format: biochemical; conditions: concentration at which the inhibitor reduces enzyme activity by 50%; enzyme about 12.3 nanomolar, substrate about 80 μM, pH 6.4
Text: The compounds of the present invention are advantageously effective HIV protease inhibitors. Utilizing an enzyme assay as described below, the compounds set forth in the examples herein disclosed inhibited the HIV enzyme. The preferred compounds of the present invention and their calculated IC50 (the concentration at which the inhibitor compound reduces enzyme activity by 50%) values are shown in Table 2.
The enzyme method is as follows. The substrate is 2-aminobenzoyl-Ile-Nle-Phe(p-NO2)-Gln-ArgNH2. The positive control is MVT-101 (Miller, M. et al, Science, 246, 1149 (1989)). The assay buffer is 20 mM sodium phosphate, pH 6.4, 20% glycerol, 1 mM EDTA, 1 mM DTT and 0.1% CHAPS. The substrate is dissolved in DMSO, then diluted 10 fold in assay buffer. Final substrate concentration in the assay is about 80 μM. HIV protease is diluted in the assay buffer to a final enzyme concentration of about 12.3 nanomolar, based on a molecular weight of 10,780.
The final concentration of DMSO is about 14% and the final concentration of glycerol is about 18%. The test compound is dissolved in DMSO and diluted in DMSO to ten times (10×) the test concentration. Ten microliters (10 μL) of the enzyme preparation is added, the materials mixed and then the mixture is incubated at ambient temperature for 15 minutes. The enzyme reaction is initiated by the addition of 40 μL of substrate. The increase in fluorescence is monitored at 4 time points (0, 8, 16 and 24 minutes) at ambient temperature. Each assay is carried out in duplicate wells.

[3] = Identification of metabolite in blood of male rats after oral administration (LC-MS); format: in vivo, rat; conditions: male rats (n=5), in 0.5% methylcellulose and 0.1% polysorbate 80, blood at 0.25-4 hours
Description: Butaneamide, 2-[(N,N-dimethylaminoacetyl)amino]-N-[3-[[[(1,1-dimethylethyl)amino]carbonyl](3-methylbutyl)amino]-2-hydroxy-1-(phenylmethyl)propyl]-3,3-dimethyl-, [1S-[1R*(R*), 2S*]]-, as prepared in Example 1 herein, is administered to male rats (n=5) orally in water containing 0.5% methylcellulose and 0.1% polysorbate 80 in a total volume of 5 to 7 mL per kilogram. Blood samples are collected at 0.25, 0.50, 1, 2 and 4 hours. The samples for each time-point are pooled and extracted onto a 100 mg C18 solid phase extraction column (SPEC) after prior treatment with methanol to denature plasma proteins. The extract is purified by washing the SPEC with water and collected after the addition of 1% formic acid in methanol to the SPEC. Concentration of the extract is achieved by evaporation and resolubilization in a small volume of water:acetonitrile (3:1, v/v). The resolubilized extract is filtered through a 0.2μ filter and injected onto a liquid chromatograph coupled to a mass spectrometer, using a VG Trio 2 Mass Spectrometer, by means of a thermospray interface. The chromatographic separation is produced by use of a 10 cm (2×5 cm) YMC Basic column with a mobile phase of water:acetonitrile:pyridine:formic acid (545:440:10:5, by volume).

[4] = system: CEM cells; format: cell-based; parameters: unit not given beside the values
Description: The HIV inhibition assay method of acutely infected cells is an automated tetrazolium based calorimetric assay essentially that reported by Pauwles et al, J. Virol. Methods 20, 309-321 (1988). Assays were performed in 96-well tissue culture plates. CEM cells, a CD4+ cell line, were grown in RPMI-1640 medium (Gibco) supplemented with a 10% fetal calf serum and were then treated with polybrene (2 μg/ml). An 80 μl volume of medium containing 1×10^4 cells was dispensed into each well of the tissue culture plate. To each well was added a 100 μl volume of test compound dissolved in tissue culture medium (or medium without test compound as a control) to achieve the desired final concentration and the cells were incubated at 37° C. for 1 hour. A frozen culture of HIV-1 was diluted in culture medium to a concentration of 5×104 TCID50 per ml (TCID50=the dose of virus that infects 50% of cells in tissue culture), and a 20 μL volume of the virus sample (containing 1000 TCID50 of virus) was added to wells containing test compound and to wells containing only medium (infected control cells). Several wells received culture medium without virus (uninfected control cells). Likewise, the intrinsic toxicity of the test compound was determined by adding medium without virus to several wells containing test compound. In summary, the tissue culture plates contained the following experiments: In experiments 2 and 4 the final concentrations of test compounds were 1, 10, 100 and 500 μg/ml. Either azidothymidine (AZT) or dideoxyinosine (ddI) was included as a positive drug control. […] DMSO was added to all control wells at an appropriate concentration. Following the addition of virus, cells were incubated at 37° C. in a humidified, 5% CO2 atmosphere for 7 days. Test compounds could be added on days 0, 2 and 5 if desired. […] The absorbance at 590 nm was determined for each sample using a Molecular Devices microplate reader. Absorbance values for each set of wells is compared to assess viral control infection, uninfected control cell response as well as test compound by cytotoxicity and antiviral efficacy.

| EC50 [1] | IC50 [2] | SMILES | metabolite found in blood extract compared with synthesized metabolite standard [3] | TD50 [4] |
| --- | --- | --- | --- | --- |
| 58 nM | 10 nM | CC(C)CCN(C[C@@H](O)[C@H](Cc1ccccc1)NC(=O)[C@@H](NC(=O)CN(C)C)C(C)(C)C)C(=O)NC(C)(C)C [Example 1, Butaneamide, 2-[(N,N-dimethylaminoacetyl)amino]-N-[3-[[[(1,1-dimethylethyl)amino]carbonyl](3-methylbutyl)amino]-2-hydroxy-1-(phenylmethyl)propyl]-3,3-dimethyl-,[1S-[1R*(R*), 2S*]]-] | corresponding spectra and chromatogram from a standard of the synthesized metabolite can be favorably compared | 45,000 |
| 91 nM | 13 nM | CC[C@H](C)[C@H](NC(=O)CNC)C(=O)N[C@@H](Cc1ccccc1)[C@H](O)CN(CCC(C)C)C(=O)NC(C)(C)C [Example 4, (2R,3S)-3-(N-methylaminoacetyl-L-isoleucinyl) amido-1-[N-isoamyl-N-(tert-butylcarbamoyl)]amino-4-phenyl-2-butanol] |  | 55,000 |
| 22 nM | 6 nM | CNCC(=O)N[C@H](C(=O)N[C@@H](Cc1ccccc1)[C@H](O)CN(CCC(C)C)C(=O)NC(C)(C)C)C(C)(C)C [Example 2, (2R, 3S)-3(N-methylaminoacetyl-L-tert-butylglycinyl) amino-2-hydroxy-4-phenyl-1-[N-(3-methylbutyl)-N-[(1,1-dimethylethyl)amino]carbonyl]aminobutane] |  | 45,000 |
